Test results from patent US9247759B2, “Identification of human T2R receptors that respond to bitter compounds that elicit the bitter taste in compositions, and the use thereof in assays to identify compounds that inhibit (block) bitter taste in compositions and use thereof” (SENOMYX, INC., priority 2007, dated 2016).

What follows are compounds tested against hT2R8 (Homo sapiens (Human), UniProt Q9NYW2) (assay: hT2R8 antagonist high-throughput FLIPR assay, stable cell line with G16g44, agonist andrographolide). Conditions: Table A; read-out: hT2R8 IC50.
Chain of hT2R8 (Q9NYW2 whole entry): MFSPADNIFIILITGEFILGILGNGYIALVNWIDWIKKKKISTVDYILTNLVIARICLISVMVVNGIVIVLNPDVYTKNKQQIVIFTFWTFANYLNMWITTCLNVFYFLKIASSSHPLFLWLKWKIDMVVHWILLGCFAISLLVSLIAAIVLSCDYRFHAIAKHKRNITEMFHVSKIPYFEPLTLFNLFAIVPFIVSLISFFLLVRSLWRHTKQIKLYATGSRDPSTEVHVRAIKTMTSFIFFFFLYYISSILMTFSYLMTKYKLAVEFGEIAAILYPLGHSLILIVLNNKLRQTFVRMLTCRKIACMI
Type: cell-based
In short: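 HEK293 cells stably co-expressing hT2R8 and chimeric G16g44, read on FLIPR. Test compounds added together with andrographolide (200 μM), which drives the receptor to 70–80% of maximal activity; antagonism seen as reduced agonist response.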
For `Cc1noc(C)c1Cn1cc(NC(=O)c2ccc3[nH]nnc3c2)cn1` [Example 4-87, N-(1-((3,5-dimethylisoxazol-4-yl)methyl)-1H-pyrazol-4-yl)-1H-benzo[d][1,2,3]triazole-5-carboxamide], the IC50 was 0.6 µM. Work on `Cc1noc(C)c1Cn1cc(NC(=O)C(CO)c2ccccc2)cn1` (stereo not shown) [Example 4-40, N-(1-((3,5-dimethylisoxazol-4-yl)methyl)-1H-pyrazol-4-yl)-3-hydroxy-2-phenylpropanamide] yielded an IC50 of 0.96 µM. `Cc1noc(C)c1Cn1cc(NC(=O)c2cc3c(cc2Br)OCCO3)cn1` [Example 4-89, 7-bromo-N-(1-((3,5-dimethylisoxazol-4-yl)methyl)-1H-pyrazol-4-yl)-2,3-dihydrobenzo[b][1,4]dioxine-6-carboxamide] was tested, and the IC50 was 0.3 µM. `COc1cccc(C(=O)Nc2cn(Cc3c(C)noc3C)nc2C)c1` [Example 4-115, N-(1-((3,5-dimethylisoxazol-4-yl)methyl)-3-methyl-1H-pyrazol-4-yl)-3-methoxybenzamide] showed an IC50 of 9.25 µM. In the case of `Cc1noc(C)c1Cn1cc(NC(=O)C2CCCCC2)cn1` [Example 4-61, N-(1-((3,5-dimethylisoxazol-4-yl)methyl)-1H-pyrazol-4-yl)cyclohexanecarboxamide], the IC50 is reported as 2.2 µM. `Cc1cc(C(=O)Nc2cnn(Cc3c(C)noc3C)c2)n(C)n1` [Example 4-52, N-(1-((3,5-dimethylisoxazol-4-yl)methyl)-1H-pyrazol-4-yl)-1,3-dimethyl-1H-pyrazole-5-carboxamide] showed an IC50 of 18.1 µM. Compound `COc1ccc(OC)c(NC(=S)Nc2cnn(Cc3c(C)noc3C)c2)c1` [Example 4-113, 1-(2,5-dimethoxyphenyl)-3-(1-((3,5-dimethylisoxazol-4-yl)methyl)-1H-pyrazol-4-yl)thiourea] has an IC50 of 5.24 µM. With `Cc1noc(C)c1Cn1cc(NC(=S)Nc2ccccc2)cn1` [Example 4-112, 1-(1-((3,5-dimethylisoxazol-4-yl)methyl)-1H-pyrazol-4-yl)-3-phenylthiourea] the IC50 was 2.49 µM. With `Cc1cccc(C(=O)Nc2cnn(Cc3c(C)noc3C)c2)c1` [Example 4-28, N-(1-((3,5-dimethylisoxazol-4-yl)methyl)-1H-pyrazol-4-yl)-3-methylbenzamide] the IC50 was 0.57 µM. `Cc1noc(C)c1Cn1cc(NC(=O)c2cccc(S(C)(=O)=O)c2)cn1` [Example 4-26, N-(1-((3,5-dimethylisoxazol-4-yl)methyl)-1H-pyrazol-4-yl)-3-(methylsulfonyl)benzamide] showed an IC50 of 0.72 µM. In the case of `Cc1noc(C)c1Cn1cc(NC(=S)Nc2cccnc2)cn1` [Example 4-107, 1-(1-((3,5-dimethylisoxazol-4-yl)methyl)-1H-pyrazol-4-yl)-3-(pyridin-3-yl)thiourea], the IC50 is reported as 3 µM. For `Cc1noc(C)c1Cn1cc(N(C)C(=O)C(C)c2ccccc2)cn1` (stereo not shown) [Example 4-65, N-(1-((3,5-dimethylisoxazol-4-yl)methyl)-1H-pyrazol-4-yl)-N-methyl-2-phenylpropanamide], the IC50 was 2.81 µM. With `Cc1c[nH]c(C(=O)Nc2cnn(Cc3c(C)noc3C)c2)c1` [Example 4-45, N-(1-((3,5-dimethylisoxazol-4-yl)methyl)-1H-pyrazol-4-yl)-4-methyl-1H-pyrrole-2-carboxamide] the IC50 was 0.72 µM.

Same assay, conditions: read-out: IC50 on hT2R8 bitter receptor
For `COCCN1C(=O)N(c2cnn(Cc3c(C)noc3C)c2)C(=O)C1(C)C` [Example 12-28, 3-(1-((3,5-dimethylisoxazol-4-yl)methyl)-1H-pyrazol-4-yl)-1-(2-methoxyethyl)-5,5-dimethylimidazolidine-2,4-dione], the IC50 was 0.59 µM. With `Cc1noc(C)c1Cn1cc(N2Cc3ccccc3C2=O)cn1` [Example 9-3, 2-(1-((3,5-dimethylisoxazol-4-yl)methyl)-1H-pyrazol-4-yl) isoindolin-1-One] the IC50 was 11 µM. In the case of `Cc1noc(C)c1Cn1cc(N2C(=O)NC(CCCc3ccccc3)C2=O)cn1` (stereo not shown) [Example 10-46, 3-(1-((3,5-dimethylisoxazol-4-yl)methyl)-1H-pyrazol-4-yl)-5-(3-phenylpropyl)imidazolidine-2,4-dione], the IC50 is reported as 0.17 µM. `Cc1noc(C)c1Cn1cc(N2C(=O)CN(Cc3ccccc3)C2=O)cn1` [Example 10-53, 1-benzyl-3-(1-((3,5-dimethylisoxazol-4-yl)methyl)-1H-pyrazol-4-yl)imidazolidine-2,4-dione] showed an IC50 of 0.09 µM. With `Cc1noc(C)c1Cn1cc(N2C(=O)[C@H](C)N(Cc3ccccc3)C2=O)cn1` [Example 12-11, (S)-1-benzyl-3-(1-((3,5-dimethylisoxazol-4-yl)methyl)-1H-pyrazol-4-yl)-5-methylimidazolidine-2,4-dione] the IC50 was 0.01 µM. In the case of `COc1cccc(CN2CC(=O)N(c3cnn(Cc4c(C)noc4C)c3)C2=O)c1` [Example 10-6, 3-(1-((3,5-dimethylisoxazol-4-yl)methyl)-1H-pyrazol-4-yl)-1-(3-methoxybenzyl)imidazolidine-2,4-dione], the IC50 is reported as 0.07 µM. `Cc1noc(C)c1Cn1cc(N2C(=O)NC(C)(C)C2=O)cn1` [Example 12-16a, 3-(1-((3,5-dimethylisoxazol-4-yl)methyl)-1H-pyrazol-4-yl)-5,5-dimethylimidazolidine-2,4-dione] gave an IC50 of 2.27 µM. For `Cc1noc(C)c1Cn1cc(N2C(=O)[C@@H]3Cc4ccc(O)cc4CN3C2=O)cn1` [Example 13-1, (S)-2-(1-((3,5-dimethylisoxazol-4-yl)methyl)-1H-pyrazol-4-yl)-7-hydroxy-10,10a-dihydroimidazo[1,5-b]isoquinoline-1,3(2H,5H)-dione], the IC50 was 0.02 µM. For `Cc1noc(C)c1Cn1cc(N2C(=O)N(Cc3cccc(O)c3)C3(CCC3)C2=O)cn1` [Example 12-4, 7-(1-((3,5-dimethylisoxazol-4-yl)methyl)-1H-pyrazol-4-yl)-5-(3-hydroxybenzyl)-5,7-diazaspiro[3.4]octane-6,8-dione], the IC50 was 0.03 µM. With `Cc1noc(C)c1Cn1cc(NC(=O)c2cccc(C#N)c2)cn1` [Example 4-10, 3-cyano-N-(1-((3,5-dimethylisoxazol-4-yl)methyl)-1H-pyrazol-4-yl)benzamide] the IC50 was 0.2 µM. Compound `COc1ccccc1CN1C(=O)N(c2cnn(Cc3c(C)noc3C)c2)C(=O)C1(C)C` [Example 12-31, 3-(1-((3,5-dimethylisoxazol-4-yl)methyl)-1H-pyrazol-4-yl)-1-(2-methoxybenzyl)-5,5-dimethylimidazolidine-2,4-dione] has an IC50 of 0.08 µM. With `COCc1cccc(CN2C(=O)N(c3cnn(Cc4c(C)noc4C)c3)C(=O)C23CC3)c1` [Example 12-14, 6-(1-((3,5-dimethylisoxazol-4-yl)methyl)-1H-pyrazol-4-yl)-4-(3-(methoxymethyl)benzyl)-4,6-diazaspiro[2.4]heptane-5,7-dione] the IC50 was 0.03 µM. In the case of `CCn1c(=O)n(-c2cnn(Cc3c(C)noc3C)c2)c(=O)n1Cc1ccccc1` [Example 10-91, 1-benzyl-4-(1-((3,5-dimethylisoxazol-4-yl)methyl)-1H-pyrazol-4-yl)-2-ethyl-1,2,4-triazolidine-3,5-dione], the IC50 is reported as 0.04 µM. In the case of `Cc1noc(C)c1Cn1cc(N2C(=O)NC(CO)C2=O)cn1` (stereo not shown) [Example 10-97, 3-(1-((3,5-dimethylisoxazol-4-yl)methyl)-1H-pyrazol-4-yl)-5-(hydroxymethyl)imidazolidine-2,4-dione], the IC50 is reported as 3 µM. With `Cc1ccccc1CN1C(=O)N(c2cnn(Cc3c(C)noc3C)c2)C(=O)C1(C)C` [Example 12-22, 3-(1-((3,5-dimethylisoxazol-4-yl)methyl)-1H-pyrazol-4-yl)-5,5-dimethyl-1-(2-methylbenzyl)imidazolidine-2,4-dione] the IC50 was 0.1 µM. `Cc1noc(C)c1Cn1cc(N2CN(Cc3ccccc3)CN(CCc3ccccc3)C2=O)cn1` [Example 9-7, 5-benzyl-1-(1-((3,5-dimethylisoxazol-4-yl)methyl)-1H-pyrazol-4-yl)-3-phenethyl-1,3,5-triazinan-2-one] showed an IC50 of 2.64 µM. `COc1cc2c(cc1C(=O)Nc1cnn(Cc3c(C)noc3C)c1)OCCO2` [Example 4-95, N-(1-((3,5-dimethylisoxazol-4-yl)methyl)-1H-pyrazol-4-yl)-7-methoxy-2,3-dihydrobenzo[b][1,4]dioxine-6-carboxamide] was tested, and the IC50 was 0.7 µM.

Same assay, conditions: table after Example 10-97; read-out: hT2R8 IC50
`Cc1noc(C)c1Cn1cc(N2C(=O)CN(Cc3ccn(C)n3)C2=O)cn1` [Example 10-38, 3-(1-((3,5-dimethylisoxazol-4-yl)methyl)-1H-pyrazol-4-yl)-1-((1-methyl-1H-pyrazol-3-yl)methyl)imidazolidine-2,4-dione] gave an IC50 of 0.363 µM. With `Cc1noc(C)c1Cn1cc(N2C(=O)NC(CCCc3ccccc3)C2=O)cn1` (stereo not shown) [Example 10-46, 3-(1-((3,5-dimethylisoxazol-4-yl)methyl)-1H-pyrazol-4-yl)-5-(3-phenylpropyl)imidazolidine-2,4-dione] the IC50 was 0.484 µM. `Cc1noc(C)c1Cn1cc(N2C(=O)CN(Cc3ccccc3)C2=O)cn1` [Example 10-53, 1-benzyl-3-(1-((3,5-dimethylisoxazol-4-yl)methyl)-1H-pyrazol-4-yl)imidazolidine-2,4-dione] showed an IC50 of 0.257 µM. `COc1cccc(CN2CC(=O)N(c3cnn(Cc4c(C)noc4C)c3)C2=O)c1` [Example 10-6, 3-(1-((3,5-dimethylisoxazol-4-yl)methyl)-1H-pyrazol-4-yl)-1-(3-methoxybenzyl)imidazolidine-2,4-dione] showed an IC50 of 0.073 µM. Work on `Cc1noc(C)c1Cn1cc(N2C(=O)CN(Cc3ccccc3F)C2=O)cn1` [Example 10-21, 3-(1-((3,5-dimethylisoxazol-4-yl)methyl)-1H-pyrazol-4-yl)-1-(2-fluorobenzyl)imidazolidine-2,4-dione] yielded an IC50 of 0.09 µM. With `CCn1c(=O)n(-c2cnn(Cc3c(C)noc3C)c2)c(=O)n1Cc1ccccc1` [Example 10-91, 1-benzyl-4-(1-((3,5-dimethylisoxazol-4-yl)methyl)-1H-pyrazol-4-yl)-2-ethyl-1,2,4-triazolidine-3,5-dione] the IC50 was 0.041 µM. `Cc1noc(C)c1Cn1cc(N2CN(Cc3ccccc3)CN(CCc3ccccc3)C2=O)cn1` [Example 9-7, 5-benzyl-1-(1-((3,5-dimethylisoxazol-4-yl)methyl)-1H-pyrazol-4-yl)-3-phenethyl-1,3,5-triazinan-2-one] gave an IC50 of 6.58 µM.

Same assay, conditions: table after Example 12-37; read-out: hT2R8 IC50
In the case of `COCCOc1cccc(CN2C(=O)N(c3cnn(Cc4c(C)noc4C)c3)C(=O)C2(C)C)c1` [Example 12-80, 3-(1-((3,5-dimethylisoxazol-4-yl)methyl)-1H-pyrazol-4-yl)-1-(3-(2-methoxyethoxy)benzyl)-5,5-dimethylimidazolidine-2,4-dione], the IC50 is reported as 0.71 µM. Work on `COc1ccc(CN2C(=O)N(c3cnn(Cc4c(C)noc4C)c3)C(=O)C2(C)C)nc1` [Example 12-51, 3-(1-((3,5-dimethylisoxazol-4-yl)methyl)-1H-pyrazol-4-yl)-1-((5-methoxypyridin-2-yl)methyl)-5,5-dimethylimidazolidine-2,4-dione] yielded an IC50 of 0.19 µM. Work on `Cc1noc(C)c1Cn1cc(N2C(=O)N(Cc3cccc(OCCN(C)C)c3)C(C)(C)C2=O)cn1` [Example 12-87, 1-(3-(2-(dimethylamino)ethoxy)benzyl)-3-(1-((3,5-dimethylisoxazol-4-yl)methyl)-1H-pyrazol-4-yl)-5,5-dimethylimidazolidine-2,4-dione] yielded an IC50 of 2.08 µM. In the case of `COc1ccccc1CCN1C(=O)N(c2cnn(Cc3c(C)noc3C)c2)C(=O)C1(C)C` [Example 12-58, 3-(1-((3,5-dimethylisoxazol-4-yl)methyl)-1H-pyrazol-4-yl)-1-(2-methoxyphenethyl)-5,5-dimethylimidazolidine-2,4-dione], the IC50 is reported as 0.24 µM.

Same assay, conditions: unit uM; read-out: IC50 on hT2R08 bitter receptor
`Cc1noc(C)c1Cn1cc(N2C(=O)CN(Cc3ccn(C)n3)C2=O)cn1` [Example 10-38, 3-(1-((3,5-dimethylisoxazol-4-yl)methyl)-1H-pyrazol-4-yl)-1-((1-methyl-1H-pyrazol-3-yl)methyl)imidazolidine-2,4-dione] was tested, and the IC50 was 0.4 µM. With `Cc1noc(C)c1Cn1cc(N2C(=O)CN(Cc3ccccc3F)C2=O)cn1` [Example 10-21, 3-(1-((3,5-dimethylisoxazol-4-yl)methyl)-1H-pyrazol-4-yl)-1-(2-fluorobenzyl)imidazolidine-2,4-dione] the IC50 was 0.08 µM.
